Results reported in a melting point compilation (Tetko et al.; mined from patent text by program, amines drawn as free bases though some values may be those of a salt).

Row | melting point | SMILES
1 | 160 to 162 °C | CCC1CCC(=O)C=C1c1ccc(OC(CC)C(=O)O)c(Cl)c1Cl (configuration not stated)
2 | 155 to 170 °C | CCCCc1nc2ccccn2c(=O)c1-c1ccc(NC[C@H]2CCCO2)cc1
3 | 224 to 225 °C | O=C(CC12CC3CC(CC(C3)C1)C2)Nc1ccc(O)cc1Cl
4 | 201 to 204 °C | COC(=O)c1cn(-c2ccc(F)cc2)c(C=Cc2cccnc2)cc1=O
5 | 56 to 59 °C | COc1ccc(C(=O)c2cccc(C(F)(F)F)c2)cc1C
6 | 138 to 140 °C | CCCc1c(OCCCOc2ccc3c(c2CCC)OC(C(=O)O)(C2CC2C(=O)O)CC3)ccc(C(C)=O)c1O (configuration not stated)
7 | 198 to 200 °C | O=C1Nc2ccc(-c3cccc(Cl)c3)cc2C(C2CC2)(C2CC2)O1
8 | 195 to 196 °C | CCOc1ccc(Cc2cnc(N)nc2N)cc1OC
9 | 105 to 107 °C | CCCCc1nc2ccccn2c(=O)c1-c1ccc(Cl)cc1C
10 | 176 to 178 °C | CCN(CC)CC1CCCCN1CC(=O)N1c2ccccc2NC(=O)c2c1c(C)cn2C (configuration not stated)
11 | 216 to 217 °C | COc1cc2c(Nc3ccc(Cl)cc3F)ncnc2cc1OCCCC(=O)N1CCOCC1
12 | 202 to 205 °C | O=C(O)CCC1(C(=O)O)NCC(=O)N1 (configuration not stated)
13 | 76 to 78 °C | CN(C(=O)CBr)n1cccc1C(=O)c1ccccc1
14 | 42 to 46 °C | COC(=O)c1nscc1S(=O)(=O)Cl
15 | 143 to 145 °C | COC(=O)C1CCC2C3CCC4CC(O)CCC4(C)C3C(NC3CCCC3)CC12C (configuration not stated)
16 | 74 to 76 °C | C[Si](C)(C)c1sccc1NC=O
17 | > 310 °C | CCCNC1=NS(=O)(=O)c2cc(C(=O)O)ccc2N1
18 | 226 to 228 °C | NC(=O)c1c(-c2cccc(F)c2)c(Cl)n2c1CNCC2
19 | 89 to 92 °C | CC(C)(C)OC(=O)[C@@H]1CCCN1C(=O)Cl
20 | 256 to 258 °C | O=C(c1c[nH]c2cc(Cl)ccc12)C(F)(F)F
21 | 134 °C | COCCOCCOc1ccc(/C=C/C(=O)O)c(Oc2ncc(C(F)(F)F)cc2Cl)c1
22 | 198 to 199 °C | CCCCNc1c(NCc2ccccc2)cc(C(=O)O)cc1S(N)(=O)=O
23 | 108 to 110 °C | Cc1cc(CCNc2ncnc3c(F)ccc(F)c23)ccc1Oc1cc(C(F)(F)F)ccn1
24 | 166 to 167 °C | Cc1ccc(Cn2cnc3c(-c4ccco4)ncnc32)cc1
25 | 84 to 87 °C | O=C(c1ccc([N+](=O)[O-])cc1)N1CCC[C@@H]2CCCC[C@H]21 (relative stereo)

Row | melting point | SMILES
26 | 254 °C | CC(=O)C1=C(C)Nc2nc(N)nc(N)c2C1c1ccccc1Cl (configuration not stated)
27 | 88 °C | CCOC(=O)C1=COc2cc(OC(C)=O)ccc2O1
28 | 198 to 200 °C | Nc1nc(N)nc(-c2ccc(Oc3ccccc3)cc2)n1
29 | 191 to 192 °C | CS(=O)(=O)Nc1ccc(OC2CCN(c3ccncc3)CC2)cc1
30 | 203 to 205 °C | O=C(NNC(=O)c1ccc(Oc2ccccc2)cc1)c1ccc(O)cc1
31 | 153 to 155 °C | CC(=O)SCC(=O)NC(=O)Cc1ccccc1
32 | 142 to 143 °C | CCOC(=O)[C@H](Cc1ccc(-c2c(OC)cc(CO)cc2OC)cc1)NC(=O)OC(C)(C)C
33 | > 350 °C | O=C1NC(=O)c2c1c(O)nc1cc(Cl)ccc21
34 | 121 to 123 °C | O=c1ccc(C(F)(F)F)cn1Cc1ccc([N+](=O)[O-])cc1
35 | 122 to 124 °C | COC(=O)C(Oc1ccc(C2CCCCC2)cc1)c1ccc(Oc2ccc(Cl)cc2)cc1 (configuration not stated)
36 | 133 to 136 °C | CCN1CCC(=O)N(c2ccc(Cl)cc2C)C1=S
37 | 90 to 91 °C | O=C1OCC(c2ccc([N+](=O)[O-])cc2)C1CSCc1ccccc1 (configuration not stated)
38 | 138 to 140 °C | N#CC(Cc1c[nH]cn1)(c1ccc(Cl)cc1)c1cccc(Cl)c1 (configuration not stated)
39 | 226 to 228 °C | CC(=N)Nc1cccc([N+](=O)[O-])c1
40 | 255 to 256 °C | CCOCc1nc2c(N)nc3cc(O)ccc3c2n1CC(C)(C)NS(C)(=O)=O
41 | 74 to 75 °C | CC(=O)OCc1cn(-c2ccccc2)nc1OCc1ccccc1
42 | 93 to 98 °C | CCCSc1csc(C(=O)OC)c1S(=O)(=O)NC(C)(C)C
43 | 142 to 144 °C | CC1(C)C(=O)C(c2ccccc2)=C1c1ccc(S(N)(=O)=O)cc1
44 | 136 to 138 °C | CC(=O)NC[C@H]1CN(c2ccc(N3CCC(Cc4noc(C)n4)CC3)c(F)c2)C(=O)O1
45 | 93 to 95 °C | COC(=O)COc1ccc(C(=O)CCN2CCN(c3ccncc3)CC2)cc1
46 | 169 to 171 °C | COc1c(O)ccc(C(=O)c2ccccc2)c1[N+](=O)[O-]
47 | 160 °C | Cc1nc2c(OCc3ccccc3)cc(C(=O)N(C)C)cn2c1C
48 | 65 °C | CCCc1nnc(C(Cc2ccc(-c3cccc(CN(C)C(=O)c4ccccc4)c3)cc2)Nc2ccccc2C(=O)c2ccccc2)o1 (configuration not stated)
49 | 144 to 146 °C | Cc1nn(C)c(N)c1C(=O)Nc1ccccc1C(C)C
50 | 217 to 221 °C | CCc1nc2c(C)cc(C)nc2n1Cc1ccc(C(Cc2nnn[nH]2)c2ccccc2Cl)cc1 (configuration not stated)

Row | melting point | SMILES
51 | 136 to 138 °C | COc1ncc(-c2ccncc2)cc1Br
52 | 248 to 251 °C | CNc1ccc(-c2nc(C(=O)Nc3nccs3)c(-c3cccc(OC)c3)[nH]2)cc1
53 | 66 to 68 °C | N#Cc1cc(C(Cl)(Cl)Cl)ccc1Cl
54 | 147 to 149 °C | Cc1nc2c(OCc3c(Cl)ccc(N(C)C(=O)CNC(N)=O)c3Cl)cccn2c1Br
55 | 191 °C | Cn1c(OC2CCOC2)nn(C(=O)NS(=O)(=O)c2ccccc2Br)c1=O (configuration not stated)
56 | 284 to 286 °C | CN1c2ccccc2-c2nc3ccc(/C=C/C(N)=O)cc3c3cccc1c23
57 | 134 °C | CNC(=S)C1(c2ccc(C)cn2)CCCS1 (configuration not stated)
58 | 153 to 155 °C | O=C1C(=O)c2ccccc2C2=C1SCC(COc1cccnc1)O2 (configuration not stated)
59 | 106 to 108 °C | COc1cc2c(c(C)c1OC)CC(C)CC2=O (configuration not stated)
60 | 284 °C | NS(=O)(=O)c1ccc(-c2cn(-c3nc(-c4ccc(Cl)cc4)cc(C(F)(F)F)n3)cn2)s1
61 | 169 °C | Brc1ccc(N2CCN(CCCOc3ccc(C4=NCCO4)cc3)CC2)nn1
62 | 96 to 97 °C | C=CCOC(=O)C1=C(C)NC(C)=C(C(=O)OC(C)C)C1c1cccc([N+](=O)[O-])c1 (configuration not stated)
63 | 115 to 116 °C | CCn1cc(CN(C(=O)C2CCc3cc(OC)ccc32)c2ccc(C(C)C)cc2)cn1 (configuration not stated)
64 | 87 to 89 °C | CCn1cc(-c2ccccc2)c(=O)c(-c2cccc(C)c2)c1
65 | 227 to 229 °C | COc1ccccc1Oc1c(NS(=O)(=O)c2ccc3c(c2)OCO3)nc(-c2ccnc(-c3nnn[nH]3)c2)nc1OCCO
66 | 286 to 288 °C | O=C1NCc2nc3ccc(Cl)cc3c(=O)n2-c2ccccc21
67 | 132 to 133 °C | C[C@@H](NCc1ccc(O)cc1)c1cccc2ccccc12
68 | 184 to 185 °C | Cc1c(-c2ccncn2)nc2n(c1=O)CCCN2CC(=O)c1ccccc1
69 | 206 to 208 °C | COc1ccc(CN2C(=O)C(NC(=O)Nc3ccccc3)C(=O)N(CCC(C)C)c3ccccc32)cc1 (configuration not stated)
70 | 146 to 148 °C | CCCCCCCCCCOc1ccc(Cc2cccc(C(=O)O)c2)cc1CCC(=O)O
71 | 70 to 72 °C | COC(=O)OCC1OC(n2cc(C)c(=O)[nH]c2=O)CC1OS(C)(=O)=O (configuration not stated)
72 | 121 to 122 °C | CCOC(OCC)c1cc(NC(c2ccccc2)(c2ccccc2)c2ccccc2)c(F)c(C2CCC2)n1
73 | 203 to 204 °C | CON=C1CN(c2c(F)cc3c(=O)c(C(=O)O)cn(C4CC4)c3c2Cl)CC12CN(C(=O)OC(C)(C)C)C2
74 | 97 to 99 °C | CCOc1nc(NCc2ccco2)nc(Oc2cccc(C(F)(F)F)c2)n1
75 | 84 to 87 °C | C=C(C)n1c(C)c(-c2ccc(F)cc2)c2cccnc21

Row | melting point | SMILES
76 | 77 to 78 °C | COC(=O)COc1cccc2c1CCC(CC(=O)CBr)C2 (configuration not stated)
77 | 178 to 180 °C | CCOCc1nc2c(N)nc3ccccc3c2n1Cc1cc(C)no1
78 | 171 to 172 °C | CSC1C(=O)Nc2c(C(=O)c3ccc(F)cc3)cc(F)cc21 (configuration not stated)
79 | 108 to 112 °C | COC(=O)C(C)(C)c1ccc(OCCN)cc1
80 | 118 to 120 °C | Oc1cc(Cl)c(Br)c(Cl)c1
81 | 134 to 136 °C | COc1ccc(CC#N)c(CCNC(C)=O)c1OC
82 | 189 to 191 °C | CC(C(=O)Nc1ccc2c(c1)OCO2)N1CCN(c2ccccn2)CC1 (configuration not stated)
83 | 221 to 222 °C | Nc1cc(-n2cccn2)nc(-c2ccc(Br)o2)n1
84 | 172 to 174 °C | Cn1cc(C=CC(=O)NO)c([N+](=O)[O-])n1
85 | 117 to 118 °C | N#CN1c2ccccc2CC(O)c2ccccc21 (configuration not stated)
86 | 127 to 128 °C | COc1ccc2c(c1OC)CC(c1ccccc1)CC2=O (configuration not stated)
87 | 46 to 49 °C | CC(C)(C)c1ccc(CC(=O)CCCl)cc1
88 | 108 to 109 °C | CCCOc1nn(Cc2ccc(OCc3nc(-c4ccccc4)oc3C)cc2)cc1CCC(=O)O
89 | 80 to 82 °C | COc1c(F)c(F)c(C(=O)c2ccc(Br)cc2)c(F)c1F
90 | 230 to 232 °C | CSC1=C([N+](=O)[O-])CCCN1
91 | 97 °C | O=C(Oc1ccc(O)c([N+](=O)[O-])c1)c1ccccc1
92 | 63 to 65 °C | COCC(=O)NCC1CCC(Nc2nc3c(s2)CCCc2ccc(F)cc2-3)CC1 (configuration not stated)
93 | 120 °C | CC(=O)OCCCN1CCC(CNC(=O)[C@@H]2CCCN2S(=O)(=O)c2ccc(Cl)c(COc3cccc4c(-n5cncn5)cc(C)nc34)c2Cl)CC1
94 | 261 to 263 °C | O=c1ccc(-c2ccc(-n3ccnc3)nc2)n[nH]1
95 | 117 to 118 °C | CN(C(=O)c1ccc(Cl)cc1)c1ccccc1CCCC(C(=O)O)C(=O)O
96 | 114 to 115 °C | COC(C)c1ccc(O)cc1 (single isomer, unassigned; (+))
97 | 195 to 197 °C | CN1CCN(c2cccc(-c3cnn4c(N)c(-c5cccc(Br)c5)cnc34)c2)CC1
98 | 109 to 111 °C | COC(=O)CN1CCC(C(=O)Oc2ccc([N+](=O)[O-])cc2)CC1
99 | 113 to 114 °C | Cc1nc(CO)n(C)c1[N+](=O)[O-]

Row | SMILES | melting point
100 | CNCC(O)c1cc(OC)c(O)c(OC)c1 (configuration not stated) | 175 °C
101 | O=C(O)CCNC(=O)[C@H](Cc1ccc(-c2ccccc2)cc1)NCP(=O)(O)Oc1ccccc1 | 222 to 223 °C
102 | CC12CCC(=O)C(N=[N+]=[N-])=C1CCC1C2CCC2(C)C(OC3CC3)CCC12 (configuration not stated) | 104 to 106 °C
